Reference: patent US6524805B1 (priority 1997, dated 2003)
Where “and” joins values, the source holds several entries; their conditions need not be identical. Equal entries are not always repeated. Where two headings read alike, the source gives them in different places.

Columns and labels:
[1] = test system: estrogen surface receptor (ESR1); test: NO release from ITA fragments and cultured arterial endothelial cells, estrogen compounds; format: cell-based, human
From the text: Internal thoracic artery (ITA) segments were obtained from patients undergoing elective coronary artery bypass grafting (CABG) for atherosclerotic coronary artery disease. Patients with chronic illnesses, such as diabetes or cancer as well as acute processes (e.g., known infections, trauma), were excluded.
Prior to measuring NO release, the cells were exposed to a concentration gradient of the various ligands.

[2] = test system: estrogen surface receptor (ESR1); test: Intracellular calcium (fura-2) in human arterial endothelial cells, estrogen compounds; format: cell-based; details: for effect of prior exposure on 17β-estradiol-induced [Ca^2+]i increase: tamoxifen 1 nM, ICI 182, 780 1 μM
Experimental: Human arterial endothelial cells were purchased from Cell Systems (Eugene, Oregon) and grown at 37° C., 5% CO2 in chamber slides (Nunc Int.) with CS-C medium (Cell Systems) supplemented with 10% fetal calf serum and endothelial growth factor. Intracellular calcium levels were measured by dual emission microfluorimetry using the fluorescent dye fura-2/AM. Cells were loaded with the fluorescent ion indicator as follows. […] Cells were washed twice with PBS and then test drugs were added. […] Experiments were carried out at room temperature in PBS without calcium/magnesium. Receptor antagonists, when used, were administered 2 minutes prior to the respective agonist.
Intracellular calcium levels in human arterial endothelial cells were monitored as described herein for the mu3 studies.

[3] = target: T1, mu3 opiate receptor (Homo sapiens, UniProt P35372); format: cell-based
T1 construct: aliquots of membrane suspensions from human granulocytes and lung non-small cell carcinoma; from tissue; host or cells: human granulocytes, human monocytes, normal lung, non-small cell lung carcinoma tissue, vascular tissue

[4] = target: T1, mu3 opiate receptor; test: biochemical; format: binding
Experimental: Binding was studied in human granulocytes, normal lung, and non-small cell lung carcinoma tissue. The separate materials were washed and homogenized in 50 volumes of 0.32 M sucrose (pH 7.4) at 4° C. […] Briefly, aliquots of membrane suspensions from human granulocytes and lung non-small cell carcinoma (less 9% lymphocyte infiltrate) were incubated with non-radioactive compounds at six concentrations for 10 minutes at 22° C. and then with 40 nM of ^3H-dihydromorphine ([^3H]-DHM) for 60 minutes at 4° C. One hundred percent binding is defined as bound [^3H]-DHM in the presence of 10 μM dextrophan minus bound [^3H]-DHM in the presence of 10 μM levorphanol. The IC50 values are defined as the concentration of drug that elicits half-maximal inhibition of specific binding. The mean SEM for three experiments is given.

[5] = target: T1, mu3 opiate receptor; format: cell-based; remark: listed apart in the source
Experimental: The system was calibrated daily using different concentrations of the nitrosothiol donor S-nitroso-N-acetyl-DL-penicillamine (SNAP; Sigma, St. Louis, Mo.) to generate a standard curve. The concentration of NO gas in solution was measured in real-time with the DUO 18 computer data acquisition system (World Precision Instruments). Each experiment was simultaneously performed with a control (vehicle alone) to exclude experimental drift in NO release unrelated to the administration of compounds.

T1 sequence (P35372 1-314 isoform P35372-14): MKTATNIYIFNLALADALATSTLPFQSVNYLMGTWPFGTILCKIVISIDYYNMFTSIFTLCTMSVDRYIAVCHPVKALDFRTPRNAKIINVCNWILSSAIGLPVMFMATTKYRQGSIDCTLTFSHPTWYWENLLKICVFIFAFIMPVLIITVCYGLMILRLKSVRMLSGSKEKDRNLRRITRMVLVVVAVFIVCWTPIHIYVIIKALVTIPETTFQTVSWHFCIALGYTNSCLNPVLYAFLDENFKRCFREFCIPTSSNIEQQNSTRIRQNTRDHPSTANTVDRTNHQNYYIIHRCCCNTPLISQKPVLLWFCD

C[C@]12CC[C@@H]3c4ccc(O)cc4CC[C@H]3[C@@H]1CC[C@H]2O [17α-estradiol]
stimulation of NO release [1]: did not stimulate

C[C@]12CC[C@@H]3c4ccc(O)cc4CC[C@H]3[C@@H]1CC[C@@H]2O [17β-estradiol]
NO release at 10 pM [1]: failed to stimulate a significant increase
NO release in Ca-leached endothelial cells [1]: 1.8 ± 0.6 nM
NO release peak value [1]: 16.1 nM
concentration of maximal effect on NO release [1]: 1 nM
peak value of NO release (non-leached comparison) [1]: 16.0 ± 2.7 nM
response of ITA with endothelial lining scraped off [1]: non-responsive
time period of NO release [1]: 10 min
time to peak of NO release [1]: ≤ 2 min
[Ca^2+]i after leaching of intracellular calcium stores ([2]; 17β-estradiol 1 nM, 3 hour Ca-free incubation, medium changed six times): 3.8±0.6
EC50 ([2]; stated with the [Ca^2+]i results): 0.5 nM

CC(C)C[C@@H](NC(=O)[C@H](Cc1ccccc1)NC(=O)CNC(=O)[C@@H](C)NC(=O)[C@@H](N)Cc1ccc(O)cc1)C(=O)O [DADLE, (D-Ala^2, Leu^5)-enkephalin]
stimulation of intracellular calcium level increases in endothelial cells [3]: did not stimulate

CSCC[C@H](NC(=O)[C@H](Cc1ccccc1)NC(=O)CNC(=O)[C@@H](C)NC(=O)[C@@H](N)Cc1ccc(O)cc1)C(N)=O [DAMA, (D-Ala^2, Met^5)-enkephalinamide]
IC50 ([4]; GRANULOCYTES membranes, 40 nM [3H]-DHM, mean ± SEM, three experiments, read-out: Displacement of [3H]-DHM IC50): > 1000 nM
IC50 ([4]; LUNG CARCINOMA (non-small cell) membranes, 40 nM [3H]-DHM, mean ± SEM, read-out: Displacement of [3H]-DHM IC50): > 1000 nM
IC50 ([4]; NORMAL LUNG membranes, 40 nM [3H]-DHM, mean ± SEM, read-out: Displacement of [3H]-DHM IC50): > 1000 nM
NO release at 4 minutes post morphine exposure [5]: 5.2 ± 1.4 nM
effect of pre-treatment on morphine-induced NO release ([5]; 1 nM peptide, vascular tissue, human monocytes, human granulocytes): prevented
inhibition of morphine-induced NO release ([5]; 1 nM peptide, vascular tissue, 4 to 10 minute time points): significantly (P<0.05) inhibited
NO release at 4 minutes ([5]; vascular tissue, DAMA alone 1 nM): 0.0 nM
stimulation of intracellular calcium level increases in endothelial cells ([3]; concentration range 1 pM to 1 μM): did not stimulate

C[C@@H](NC(=O)[C@@H](N)Cc1ccc(O)cc1)C(=O)NCC(=O)N(C)[C@@H](Cc1ccccc1)C(=O)NCCO [DAMGO, (Tyr-D-Ala^2, Gly-N-Me-Phe^4, Gly(ol)^5)-enkephalin]
effect of pre-treatment on morphine-induced NO release [5]: prevented
effect on NO release (compound alone) [5]: no effect
inhibition of morphine-induced NO release [5]: significantly (P<0.05) inhibited
stimulation of endothelial [Ca^2+]i increases [3]: did not stimulate

CN1CC[C@]23c4c5ccc(O)c4O[C@H]2[C@@H](O)CC[C@H]3[C@H]1C5 [Dihydromorphine]
IC50 ([4]; Displacement of [3H]-DHM IC50): 33 nM and 27 nM and 28.5 nM

C[C@]12CC[C@@H]3c4ccc(O)cc4C[C@@H](CCCCCCCCC[S+]([O-])CCCC(F)(F)C(F)(F)F)[C@H]3[C@@H]1CC[C@@H]2O (stereo partly shown) [ICI 182, 780]
effect of pre-treatment on 17β-estradiol-induced NO release ([1]; ITA fragments and cultured arterial endothelial cells, tamoxifen 1 nM, ICI 182,780 1 nM, L-NAME 100 μM, 5 minutes before agonist): failed to inhibit
effect of pre-treatment on E2-BSA-induced NO release ([1]; ITA fragments and cultured arterial endothelial cells, tamoxifen, ICI 182,780 1 nM, L-NAME 100 μM, 5 minutes before agonist): failed to inhibit
effect of prior exposure on 17β-estradiol-induced [Ca^2+]i increase [2]: not

COC(=O)[C@@H](N)CCCNC(=N)N[N+](=O)[O-] [L-NAME, N omega-nitro-L-arginine methyl ester]
effect of pretreatment on morphine-induced NO release ([5]; human granulocytes): inhibited

Oc1ccc2c3c1O[C@H]1c4[nH]c5ccccc5c4C[C@@]4(O)[C@@H](C2)N(CC2CC2)CC[C@]314 [Naltrindole]
NO release [5]: 12.0 ± 3.4 nM
effect on the inhibition of morphine-induced NO release by DAMA [5]: blocked

CC/C(=C(\c1ccccc1)c1ccc(OCCN(C)C)cc1)c1ccccc1 [Tamoxifen]
effect of pre-treatment on 17β-estradiol-induced NO release [1]: significantly diminished
effect of pre-treatment on E2-BSA-induced NO release [1]: blocked
effect of prior exposure on 17β-estradiol-induced [Ca^2+]i increase [2]: blocked
